Experimental data taken from patent US9598362B2, “Benzidine derivative, method for preparing same, and pharmaceutical composition containing benzidine derivative for treating liver disease caused by hepatitis C virus” (priority 2013, dated 2017).
Where two headings read alike, the source gives them in different places.

Experiments:
HCV replicon NK/R2AN = assay: Evaluation of anti-HCV activity 2: inhibition of HCV replication, huh7.5.1 cells with replicon NK/R2AN, renilla luciferase; assay type: cell-based; settings: for EC50: Hepatitis C virus; for EC50 (in words): duplicated HCV treated with compound
Protocol: To evaluate the anti-HCV activity, that is the activity to inhibit HCV replication, of the compound represented by formula 1 of the present invention, the following experiment was performed.
The hepatoma cell line huh7.5.1 having NK/R2AN, the replicon with which the replication and translation of HCV could be measured, was distributed in a 12-well cell culture plate at the density of 50,000 cells/well. The cells were cultured in DMEM (Dulbecco's Modified Eagle's Medium 12800-017, GIBCO Co.) supplemented with 10% (v/v) FBS (Fetal Bovine Serum SH30406.02, Hyclone Co.), 1% (v/v) antibiotics (penicillin/streptomycin solution SV30010, Hyclone Co.), and G418 (600 μg/mL, Calbiochem) in a 37° C. 6.0% CO2 incubator (CO2 Incubator 311, Forma Scientific Co, Lnc. USA) for 24 hours to lead cell attachment on the plate. Then, the cells were inoculated with HCV having renilla luciferase gene as a reporter for 3 hours. Upon completion of the virus inoculation, the cell culture medium was replaced with the medium containing the compounds prepared in Examples 1˜24 were added to the culture medium at the concentrations of 40 pM˜1 μM each. The cells were cultured in a 37° C. 6.0% CO2 incubator (CO2 Incubator 311, Forma Scientific Co, Lnc. USA) for 3 days. Three days after the infection, the cell culture medium was collected to measure the cytotoxicity in the following Experimental Example 3. The cells attached on the plate were washed with PBS (phosphate buffered saline) and then lysed by treating 100 μl of 1× passive lysis buffer (Promega, E1941). The cell lysate (10 μl) was added to renilla luciferase assay reagent (50 μl) in renilla luciferase assay system (Promega, E2820), followed by measurement of luminescence for 10 seconds using the luciferase measure program with Luminometer (GLOMAX 20/20 Luminometer, Promega). At this time, the measurement of luminescence was performed in triplicate with the groups treated with the compounds of Examples 1˜24 and the non-treated control group. The mean value was calculated and compared. The luminescence of each compound over the concentration was converted into EC50 (half maximal effective concentration) by using sigma plot program, and the results are shown in Table 3. At this time, when EC50 was under 100 pM, it was marked as A; when EC50 was in the range of 100 pM 1 nM, it was marked as B; when EC50 was in the range of 1 nM˜100 nM, it was marked as C; and when EC50 was over 100 nM, it was marked as D. The results are shown in Table 3.

HCV (JFH-5aFlucm4) = assay: Evaluation of anti-HCV activity 1: huh7.5.1 cells inoculated with HCV carrying renilla luciferase reporter; assay type: cell-based; settings: Hepatitis C virus
Protocol: To evaluate the anti-HCV activity of the compound represented by formula 1 of the present invention, the following experiment was performed.
The hepatoma cell line huh7.5.1 was distributed in a 12-well cell culture plate at the density of 50,000 cells/well. The cells were cultured in DMEM (Dulbecco's Modified Eagle's Medium 12800-017, GIBCO Co.) supplemented with 10% (v/v) FBS (Fetal Bovine Serum SH30406.02, Hyclone Co.) and 1% (v/v) antibiotics (penicillin/streptomycin solution SV30010, Hyclone Co.) in a 37° C. 6.0% CO2 incubator (CO2 Incubator 311, Forma Scientific Co, Lnc. USA) for 24 hours to lead cell attachment on the plate. Then, the cells were inoculated with HCV (JFH-5aFlucm4, PLoS One. 2011; 6(8):e228808.) having renilla luciferase gene as a reporter for 3 hours. Upon completion of the virus inoculation, the cell culture medium was replaced with the medium containing the compounds prepared in Examples 1˜24 at the concentration of 1 μM each. The cells were cultured in a 37° C. 6.0% CO2 incubator (CO2 Incubator 311, Forma Scientific Co, Lnc. USA) for 3 days. Three days after the infection, the cell culture medium was collected to measure the cytotoxicity in the following Experimental Example 3. The cells attached on the plate were washed with PBS (phosphate buffered saline) and then lysed by treating 100 μl of 1× passive lysis buffer (Promega, E1941). The cell lysate (10 μl) was added to renilla luciferase assay reagent (50 μl) in renilla luciferase assay system (Promega, E2820), followed by measurement of luminescence for 10 seconds using the luciferase measure program with Luminometer (GLOMAX 20/20 Luminometer, Promega). At this time, the measurement of luminescence was performed in triplicate with the groups treated with the compounds of Examples 1˜24 and the non-treated control group. The mean value was calculated and compared. The luminescence of each compound over the concentration was converted into EC50 (half maximal effective concentration) by using sigma plot program, and the results are shown in Table 2.

[1] = Huh-7.5.1, 72 h, read-out: EC50 grade
[2] = Huh-7.5.1, replicon huh7.5.1 cells, Table 3, read-out: EC50

Row | SMILES | EC50 (HCV replicon NK/R2AN; [1]) [nM] | EC50 (HCV replicon NK/R2AN; [2]) [nM] | EC50 (in words) (HCV replicon NK/R2AN) | EC50 (HCV (JFH-5aFlucm4); Huh-7.5.1) [nM] | EC50 (HCV (JFH-5aFlucm4); [1]) [nM] | EC50 (HCV replicon NK/R2AN; Huh-7.5.1) [nM]
1 | COC(=O)N[C@@H](C(=O)N1CCC[C@H]1C(=O)Nc1ccc2c(c1)C(F)(F)c1cc(NC(=O)[C@@H]3CCCN3C(=O)[C@H](NC(=O)OC)c3ccccc3)ccc1-2)c1ccccc1 [Example 22, dimethyl((1R,1′R)-((2S,2′S)-2,2′-(((9,9-difluoro-9H-fluorene-2,7-diyl)bis(azandiyl))bis(carbonyl))bis(pyrrolidine-2,1-diyl))bis(2-oxo-1-phenylethane-2,1-diyl))dicarbamate] | < 0.1 | < 0.1 | significantly low | < 1 | < 1 | 
2 | COC(=O)N[C@@H](C(=O)N1CC(=O)C[C@H]1C(=O)Nc1ccc(-c2ccc(NC(=O)[C@@H]3CC(=O)CN3C(=O)[C@H](NC(=O)OC)c3ccccc3)cc2)cc1)c1ccccc1 [Example 9, dimethyl((1R,1′R)-((5S,5′S)-5,5′-(([1,1′-biphenyl]-4,4′-diylbis(azandiyl))bis(carbonyl))bis(3-oxopyrrolidine-5,1-diyl))bis(2-oxo-1-phenylethane-2,1-diyl))dicarbamate] | < 0.1 |  | significantly low | < 1 | < 1 | < 0.1
3 | COC(=O)N[C@@H](C(=O)N1CCC[C@H]1C(=O)Nc1ccc(-c2ccc(NC(=O)[C@@H]3CCCN3C(=O)[C@H](NC(=O)OC)c3ccccc3)c(C)c2)cc1C)c1ccccc1 [Example 1, dimethyl((1R,1′R)-((2S,2′S)-2,2′-(((3,3′-dimethyl-[1,1′-biphenyl]-4,4′-diyl)bis(azandiyl))bis(carbonyl))bis(pyrrolidine-2,1-diyl))bis(2-oxo-1-phenylethane-2,1-diyl))dicarbamate] | 1 to 100 |  |  |  | > 100 | 
4 | COC(=O)N[C@@H](C(=O)N1CCC[C@H]1C(=O)Nc1ccc2c(c1)C(C)(C)c1cc(NC(=O)[C@@H]3CCCN3C(=O)[C@H](NC(=O)OC)c3ccccc3)ccc1-2)c1ccccc1 [Example 23, dimethyl((1R,1′R)-((2S,2′S)-2,2′-(((9,9-dimethyl-9H-fluorene-2,7-diyl)bis(azandiyl))bis(carbonyl))bis(pyrrolidine-2,1-diyl))bis(2-oxo-1-phenylethane-2,1-diyl))dicarbamate] | < 0.1 | < 0.1 | significantly low | < 1 | < 1 | 
5 | COC(=O)N[C@@H](C(=O)N1CSC[C@H]1C(=O)Nc1ccc(-c2ccc(NC(=O)[C@@H]3CSCN3C(=O)[C@H](NC(=O)OC)c3ccccc3)cc2)cc1)c1ccccc1 [Example 21, dimethyl(1S,1S′)-2,2′-((4R,4R)-4,4′-(biphenyl-4,4′-diylbis(azandiyl))bis(oxomethylene)bis(thiazolidine-4,3-diyl))bis(2-oxo-1-phenylethane-2,1-diyl)bicarbamate] | < 0.1 |  | significantly low |  | 1 to 100 | < 0.1
6 | COC(=O)N[C@@H](C(=O)N1CCC[C@H]1C(=O)Nc1ccc2c(c1)Cc1cc(NC(=O)[C@@H]3CCCN3C(=O)[C@H](NC(=O)OC)c3ccccc3)ccc1-2)c1ccccc1 [Example 4, dimethyl((1R,1′R)-((2S,2′S)-2,2′-(((9H-fluorene-2,7-diyl)bis(azandiyl))bis(carbonyl))bis(pyrrolidine-2,1-diyl))bis(2-oxo-1-phenylethane-2,1-diyl))dicarbamate] | < 0.1 |  | significantly low |  | 1 to 100 | < 0.1
7 | CCN(CC)[C@@H](C(=O)N1CCC[C@H]1C(=O)Nc1ccc(-c2ccc(NC(=O)[C@@H]3CCCN3C(=O)[C@@H](c3ccccc3)N(CC)CC)cc2)cc1)c1ccccc1 [Example 15, (S,2S,2′S)—N,N-(biphenyl-4,4′-diyl)bis(1-((S)-2-(diethylamino)-2-phenylacetyl)pyrrolidine-2-carboxamide)] | 0.1 to 1 |  |  |  | 1 to 100 | 
8 | COC(=O)N[C@@H](C(=O)N1CCC[C@@H]1C(=O)Nc1ccc(-c2ccc(NC(=O)[C@H]3CCCN3C(=O)[C@H](NC(=O)OC)c3ccccc3)cc2)cc1)c1ccccc1 [Example 8, dimethyl((1R,1′R)-((2R,2′R)-2,2′-(([1,1′-biphenyl]-4,4′-diylbis(azandiyl))bis(carbonyl))bis(pyrrolidine-2,1-diyl))bis(2-oxo-1-phenylethane-2,1-diyl))dicarbamate] | 1 to 100 |  |  |  | > 100 | 
9 | COC(=O)N[C@@H](C(=O)N1CCC[C@H]1C(=O)Nc1ccc(-c2ccc(NC(=O)[C@@H]3CCCN3C(=O)[C@H](NC(=O)OC)c3ccccc3)cc2Cl)c(Cl)c1)c1ccccc1 [Example 6, dimethyl((1R,1′R)-((2S,2′S)-2,2′-(((2,2′-dichloro-[1,1′-biphenyl]-4,4′-diyl)bis(azandiyl))bis(carbonyl))bis(pyrrolidine-2,1-diyl))bis(2-oxo-1-phenylethane-2,1-diyl))dicarbamate] | < 0.1 | < 0.1 | significantly low | < 1 | < 1 | 
